Source: US12508322B2, “MIR-145 micelles for mitigating atherosclerosis” (University of Southern California, priority 2021, dated 2025)

Key:
atherosclerotic plaques = assay: Analysis of atherosclerotic lesions (aortic root H&E, en face Oil Red O) after a single IV dose; format: in vivo, mice
Method: Male Myh11-CreER^T2 ROSA26 STOP-flox eYFP^+/+ Apoe^−/− mice and female Apoe^−/− mice were used for all studies as the Myh11 transgene is expressed only in male mice. Mice were genotyped by qPCR. Following previously reported methods, mice received ten intraperitoneal injections of 1 mg tamoxifen from 6 weeks of age to 8 weeks for 10 mg total of tamoxifen per 25 g of mouse body weight.
(§1) Subsequently, mice were fed a high fat diet (20-23% milkfat, 34% sucrose, 0.2% cholesterol, Teklad Envigo) for 2 weeks before intravenous tail vein injection of treatment (miR-145 micelles, miR-67 micelles, scrambled MCP-1 (NT) miR-145 micelles, free miR-145 (1 mg/kg miR or 0.7 mM total micelle), or PBS). Mice continued high fat diet for an additional 4 weeks or 8 weeks for short- and longer-term efficacy analyses. Mice were then euthanized via CO2 asphyxiation and perfused with PBS, 4% paraformaldehyde (PFA), and PBS again. Organs and aorta were carefully dissected and saved for additional analyses.
Atherosclerotic plaques were analyzed in two ways: 1) en face analysis of entire aorta with Oil Red O (ORO) lipid stain and 2) hematoxylin and eosin (H&E) stains of cross sections of aortic roots. Briefly, aortas were dissected from the root to the common iliac arteries. Excess adventitial fat was carefully removed and the aorta was fixed in 4% PFA overnight. The tissue was then cleaned in 78% methanol for 5 min before staining for 1 h with 0.2% ORO solution in methanol. The aortas were then washed twice with 78% methanol for 5 min each and cut open longitudinally before imaging with a stereomicroscope (Leica, Wetzlar, Germany). Quantification of positively stained lesions was done using ImageJ software (NIH, Bethesda, MD). Aortic roots were embedded in optimal cutting temperature compound (OCT) and flash frozen in 2-methylbutane and liquid nitrogen. Roots were sectioned at 10 μm thick sections and stained using H&E. Plaque and necrotic core area in three aortic root sections were quantified and averaged for each sample to obtain a mean±S.D. measurement.

miR-145 = assay: In vivo miR-145 expression in liver tissue (RT-qPCR); parameters: species or system mice; conditions: one month post treatment
Method: as §1
Aortic roots and liver tissue were obtained from treated mice. Tissues were weighed and lysed with Trizol (Invitrogen, Carlsbad, CA). miRNeasy Mini Kit (Qiagen, Hilden, Germany) was used to extract microRNA and the miScript II RT Kit (Qiagen, Hilden, Germany) was used to synthesize cDNA according to manufacturer's instructions. Real-time qRT-PCR was performed on the LightCycler 480 Real-Time PCR System ([…]) to evaluate miR-145 levels. RNU-6 was used as an internal control and the 2-AACT method was used to calculate relative expression changes.

[1] = system: VSMC phenotype in plaques (α-SMA, CD68, RUNX2, eYFP); assay: In vivo immunohistochemistry: cellular composition of aortic root plaques; parameters: species or system mice; conditions: one month after single dose
Method: as §1
Aortic roots were cryosectioned as mentioned above. Tissue sections were blocked in 10% donkey serum with 1% BSA. Sections were subsequently stained with antibodies to GFP (Abcam ab6673), α-SMA (Abcam ab5694), CD68 (Abcam ab125212), and RUNX2 (Abcam ab192256) overnight at 4° C. Donkey anti-rabbit IgG Alexa Fluor 594 (Thermo Fisher, Waltham, MA, USA) and donkey anti-goat IgG Alex Fluor 488 (Thermo Fisher, Waltham, MA, USA) were used as secondary antibodies. Sections were counterstained with DAPI for the nuclei, mounted in ProLong Gold Antifade (Thermo Fisher, Waltham, MA, USA), and imaged using a confocal microscope (Nikon C2 CLSM, Nikon, Tokyo, Japan). Cells were then counted using ImageJ software. […]

[2] = Serum cholesterol quantification (HDL, LDL); format: in vivo, mice; conditions: two months post injection
Method: Serum cholesterol levels were quantified using a high density lipoprotein (HDL) and low density lipoprotein (LDL) quantification kit (Sigma-Aldrich). Following the manufacturer's protocol, HDL and LDL were separated in serum using precipitation buffer. HDL and LDL samples were subsequently incubated with Reaction Mixes and fluorescence (ex: 535 nm/em: 587 nm) was measured using a plate reader (Varioskan LUX, Thermo Fisher, Waltham, MA, USA).

[3] = one month after single dose, 1 mg/kg miR IV

Substance: free miR-145: unformulated miR-145, 5′-GUCCAGUUUUCCCAGGAAUCCCU-3′ (SEQ ID NO: 2) (listed as RNA, chemistry not given here; listed as Homo sapiens)
- overall lesion area of the aorta (ORO en face) (atherosclerotic plaques; [3]): 7.0±1.3%
- plaque area in the aortic root (atherosclerotic plaques; [3]): 2.1±0.9%
- lesion area by en face ORO staining (atherosclerotic plaques; two months after single dose): 8.0±2.0%
- plaque/lesional area in the aortic root (atherosclerotic plaques; two months after single dose): 10.8±5.0%
- miR-145 expression in the liver, fold increase compared to PBS (miR-145): 1.5 fold
- overlap in eYFP and α-SMA signal (α-SMA+YFP+/YFP+) [1]: 30.0±22.1%
- α-SMA expression within plaques (α-SMA+/DAPI) [1]: 40.1±30.7%
- serum HDL level [2]: increases
